Ends that are not written are not given here.
What was measured:
[1] = system: LPS signaling (TLR4) in WT C57BL/6J peritoneal macrophages; assay: LPS signaling in peritoneal macrophages pre-treated with GRP inhibitor or GRPR antagonist; format: cell-based, mouse; details: 0.5 μM pre-treatment 1 h, then LPS (10 ng/ml) 2 h
[2] = system: influenza-induced cytokine induction; assay: Lung cytokine gene expression by qRT-PCR in PR8-infected mice; format: in vivo, WT C57BL/6J mice; set-up: lung mRNA expression of IFN-β: dose or concentration left out as unconfirmed
[3] = system: pulmonary neuroendocrine cells (PNECs); assay: IHC staining for pulmonary neuroendocrine cells (PGP 9.5, GRP) in influenza-infected mice; format: in vivo, WT C57BL/6J mice
Description: FIG. 4. IHC staining for pulmonary neuroendocrine cells (PNECs), PGP 9.5, and GRP in influenza-infected mice. Lung sections from FIG. 3 were stained in a mock-infected, c PR8+vehicle, and e PR8+NSC77427 for neural/neuroendocrine-specific PGP 9.5, or in b mock-infected, d PR8+vehicle, and f PR8+NSC77427 for GRP, a neuroendocrine granule marker. Scale bars shown are 50 μm for a-d, and 10 μm for e and f. Arrows are positioned in each panel within a treatment group to indicate groups of positive cells, except in b, where the arrow indicates GRP− cells adjacent to the PGP 9.5+ cells shown in a. g Graphic image analysis of PGP 9.5+ and GRP+ cells after IHC staining. Slides were blinded by an observer with no knowledge of experimental groups. PCP9.5+ and GRP+ cells were counted throughout each complete lung lobe crosssection for each animal, with validation by x40 micrographs of each slide. Total tissue area was determined by using ImageI thresholding analysis (methyl green counterstain) because PNECs are mainly observed in alveolar ducts and small bronchioles. *p=0.009; **p=0.001
Immunohistochemical (IHC) staining for the mature GRP peptide (a PNEC granule marker) and PGP 9.5 (the neural/NE cytoplasmic isoform of ubiquitin-C-terminal hydrolase-1) was carried out as described previously. In brief, formalin-fixed, paraffin-embedded lung sections were treated for 10 min with Triton X-100 (0.3% in phosphate-buffered saline (PBS)), then normal serum blocking. Diluted primary antibodies were added to sections overnight at 4° C., followed by washing in PBS and incubation for 2 h at 4° C. with 1:200 dilution of biotinylated secondary antibodies (Vector, Burlingame, Calif., USA). After blocking in 3% H2O2 in methanol, Vector ABC Elite was applied to slides for 30 min. Slides were developed by using diaminobenzidine and H2O2, and then counterstained in 2% aqueous methyl green. All slides were blinded for semi-quantitative analysis. Results are expressed as mean numbers of cells positive for PGP 9.5 or GRP per mm^2 lung tissue section. […]

[4] = system: radiation-induced pneumonitis/fibrosis; details: therapeutic administration; cited from earlier work
GRP-induced angiogenesis = details: 0.5 μM; in vitro and in vivo; cited from earlier work
[5] = system: LPS signaling (TLR4) in WT C57BL/6J peritoneal macrophages; format: cell-based, mouse; details: 2 h
[6] = 20 μM/mouse i.v. daily day 2 to 6

Nc1nc(Cl)cc(NCCO)n1 [NSC77427, 2-[(2-amino-6-chloropyrimidin-4-yl)amino]ethanol]
LPS-induced MyD88-dependent (TNF-α) or TRIF-dependent (IFN-β, RANTES) gene expression [1]: did not block | lung mRNA expression of IL-1β [2, 6]: blunted | lung mRNA expression of RANTES [2, 6]: blunted | lung mRNA expression of TNF-α [2, 6]: blunted | lung mRNA expression of IFN-β ([2]; i.v. daily day 2 to 6): blunted | fewer PGP+ PNECs vs. PR8-infected untreated ([3]; NSC77427 days 2 to 6, IHC image analysis, p=0.009): ~50% | GRP immunostaining in the extracellular matrix ([3]; PR8-infected, NSC77427 days 2 to 6): visibly less | decrease in GRP+ PNECs ([3]; PR8-infected, NSC77427 days 2 to 6, IHC image analysis, p=0.001): ~70% | lung injury [4]: mitigated | GRP-induced angiogenesis (GRP-induced angiogenesis): blocked GRP-induced angiogenesis

GRP: exogenous gastrin-releasing peptide added to macrophages with LPS (VPLPAGGGTVLTKMYPRGNHWAVGHLM; ends and bridges not checked; UniProt P07492 24-50, looked up)
MyD88-dependent and TRIF-dependent cytokine gene expression with suboptimal LPS ([5]; GRP 1-100 nM plus LPS 0.1 and 1 ng/ml): synergistic induction | synergistic effect with LPS at higher doses of LPS ([5]; GRP 1-100 nM plus LPS up to 10 ng/ml): largely lost | cytokine gene expression, GRP alone ([5]; GRP 1-100 nM, no LPS): did not induce cytokine gene expression
